# Values joined by “and” are separate entries in the source; they are usually repeats but may differ in a detail not shown here. Equal values may be shown once.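 Compound exposure: 48 hours, 5 concentrations, 96-well plates. Here, GI50 denotes the concentration required for 50% inhibition of growth. TGI marks complete inhibition of growth.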
# What was measured:
# Test in all cases: NCI tumour cell line growth inhibition, 48 h
# OVCAR-5 ovarian = system: OVCAR-5 ovarian
# HCT-15 colon = system: HCT-15 colon
# HCC-2998 colon = system: HCC-2998 colon
# DU-145 prostate = system: DU-145 prostate
# SN12C renal = system: SN12C renal
# SK-MEL-5 melanoma = system: SK-MEL-5 melanoma
# SK-MEL-2 melanoma = system: SK-MEL-2 melanoma
# HL-60(TB) leukemia = system: HL-60(TB) leukemia
# OVCAR-4 ovarian = system: OVCAR-4 ovarian
# NCI-H460 lung = system: NCI-H460 lung
Compound,TGI (OVCAR-5 ovarian),TGI (HCT-15 colon) [µM],TGI (HCC-2998 colon),TGI (DU-145 prostate),TGI (SN12C renal) [µM],TGI (SK-MEL-5 melanoma),TGI (SK-MEL-2 melanoma) [µM],TGI (HL-60(TB) leukemia) [µM],TGI (OVCAR-4 ovarian) [µM],TGI (NCI-H460 lung) [µM],GI50 (OVCAR-5 ovarian),GI50 (HCT-15 colon),GI50 (HCC-2998 colon),GI50 (DU-145 prostate),GI50 (SN12C renal),GI50 (SK-MEL-2 melanoma),GI50 (HL-60(TB) leukemia),GI50 (OVCAR-4 ovarian),GI50 (NCI-H460 lung),GI50 (SK-MEL-5 melanoma) [µM]
CSc1nc(SC)c2c(CN=[N+]=[N-])c(Br)n(Cc3ccccc3)c2n1,> 100 µM,> 100,> 100 µM,> 100 µM,> 100,> 100 µM,> 100,> 100,> 100,> 100,–,–,–,–,–,–,–,–,–,–
CC(=O)Nc1cccc(-n2c(=O)n(C3CC3)c(=O)c3c(Nc4ccc(I)cc4F)n(C)c(=O)c(C)c32)c1,29.8 µM and > 10 µM,> 75.3,15.7 µM and > 10 µM,93.9 µM and > 10 µM,> 100,15.9 µM and > 10 µM,0.0544,> 41.7,> 100,> 93.6,< 0.01 µM and 0.00472 µM,0.65 µM and 0.864 µM,< 0.01 µM and 0.0024 µM,3.36 µM and > 4.01 µM,2.39 µM and > 2.41 µM,< 0.01 µM and 0.002 µM,< 0.01 µM and 0.00141 µM,0.515 µM and 2.65 µM,3.19 µM and > 4.26 µM,–
COc1cccc(/C=C/C(=O)c2cc3c(N)c(C(=O)Nc4ccccc4C)sc3nc2C)c1,3.76 µM,1.87,1.87 µM,4.08 µM,2.13,4.56 µM,8.18,2.63,11.2,2.53,1.21 µM,0.854 µM,0.955 µM,1.32 µM,0.953 µM,1.7 µM,1.1 µM,2.38 µM,1.1 µM,1.44
COc1c(C2CC(=O)Nc3c2cnn3Cc2ccco2)cc2c(c1OC)OCO2 (centres undefined),> 100 µM,> 100,> 28.4 µM,24.6 µM,> 100,8.38 µM,> 100,–,> 100,> 100,4.7 µM,0.431 µM,1.1 µM,0.522 µM,1.94 µM,0.421 µM,0.301 µM,–,0.401 µM,0.395
COc1cc2c3c(cccc3c1)C(=O)N(CCN1CCCC1)C2=O,> 100 µM,> 100,7.19 µM,5.97 µM,78.5,3.06 µM,6.61,61,–,11.3,4.12 µM,2.63 µM,2.63 µM,2.13 µM,2.41 µM,3.14 µM,3.65 µM,–,2.26 µM,1.56
COc1cc2ncn(-c3cc(OCc4ccccc4Cl)c(C(N)=O)s3)c2cc1OC,> 25 µM,> 25,> 25 µM,0.511 µM,> 25,3.13 µM,> 15.9,–,> 25,> 8.64,0.492 µM,0.269 µM,0.488 µM,0.105 µM,1.48 µM,1.5 µM,0.0741 µM,2.09 µM,0.146 µM,0.0993
CC(C)(C)OC(=O)NC(Cc1ccccc1)C(=O)OCN1C(=O)C2C3C=CC(C2C1=O)C1C2C(=O)N(COC(=O)C(Cc4ccccc4)NC(=O)OC(C)(C)C)C(=O)C2C31 (centres undefined),> 100 µM,> 100,> 100 µM,> 100 µM,> 100,> 74.8 µM,98.5,> 57.5,> 100,> 100,–,–,–,–,–,–,–,–,–,–
COC1(C(=O)N2Cc3nc(Cl)nc(N[C@H](C)c4cc(N)cc(C(F)(F)F)c4)c3C2)CCOCC1,58 µM,> 76.3,59.2 µM,> 100 µM,53.4,28.1 µM,33.6,66.4,99.2,40.9,18.2 µM,23.2 µM,20.8 µM,31.7 µM,12.4 µM,16.7 µM,22.6 µM,19.8 µM,18.7 µM,14.8
Cc1nn(-c2ccc(F)cc2)c2ncnc(Nc3ccc(NC(=O)Nc4ccc(Cl)c(C(F)(F)F)c4)cc3)c12,11.9 µM,12.5,10.6 µM,11.7 µM,5.56,12.1 µM,5.66,8.1,7.13,6.01,2.81 µM,2.73 µM,2.57 µM,3.17 µM,2.07 µM,2.37 µM,2.73 µM,2.46 µM,2.35 µM,3.39
Cc1cc2nc3c4cc(Cl)ccc4n(CCN(C)C)c3nc2cc1C,5.2 µM,4.7,2.74 µM,4.62 µM,8.45,3.22 µM,4.45,4.33,9.08,2.85,2 µM,0.821 µM,1.35 µM,2.14 µM,1.61 µM,2.08 µM,1.93 µM,1.72 µM,1.34 µM,1.8

# Source: PubChem BioAssay (NCI)
